Entries after “also recorded” stand apart in the source; their conditions may differ.

Here are results for 11 molecules from patent US6531462B2, “Medicament for treating obesity and improving lipid metabolism” (priority 1997, dated 2003).

Series [1] can be described thus: Example 1: serum lipids and serum metabolites of mice fed feed supplemented with 0.5% test compound. The settings on record: for Serum cholesterol / Serum neutral fats: ratio relative to the non-treated control group. It is filed as in vivo. The protocol: (§1) 5-Sitosten-3-one was prepared according to the method of Parish (Parish, E. J., et al., Synthetic Communication, 22, pp.2839-2847, 1992) by using β-sitosterol (Tokyo Chemical Industry Co., Ltd.) as a starting material and used in the experiments. The content ratio of 24-ethyl and 24-methyl compounds in the synthesized product was 6.5:3.5. As experimental animals, six CDF1 male mice (5-week old, Charles River Japan Inc.) were used in each experimental group. The animals were fed in aluminum cages for mice, and allowed to feed and water ad libitum. The animals were fed for 2 weeks under feeding conditions at a temperature of 24±1° C. and a relative humidity of 55±5%, where light and darkness were controlled to change every 12 hours, and each cage and floor mat (white flakes) were exchanged twice a week.
(§2) Modified AIN (Oriental Yeast Co.) was used as basic feed and mixed with 0.5% 5-sitosten-3-one to prepare test feeds. A feed used as a positive control was prepared by adding 0.5% of 4-cholesten-3-one (Japanese Patent Unexamined Publication No. Hei 5-170651/1993) to the basic feed. Non-treated mice as a control were fed solely with the basic feed. The basic feed was composed of 22.8% crude protein, 54.1% carbohydrates, 6.0% lipids, 4.9% fibers, 2.9% ash, and 8.7% water, and its calorie was 1,523 kJ. The feed was stored at 4° C. after preparation, and a fresh feed was supplied every day.
(§3) The animals were weighed at given intervals of time, and the average values and standard errors of the experimental groups were determined. In addition, feed consumptions were measured at given intervals of time and daily averages per mouse were determined. The animals were observed every day. After the end of the feeding, the animals were anesthetized to death with carbon dioxide gas, and bloods were collected from the vena cava to obtain serums. The animals were autopsied, and the brains, lungs, hearts, livers, spleens, kidneys, testis, adrenals and intraperitoneal fat were examined by the naked eye and weighed. As to serum lipid, neutral fats were measured by using a clinical test kit based on the enzyme method (Triglyceride-E Test, Wako Pure Chemicals Industries Co., Ltd.), and total cholesterol and cholestanol were measured by the method of Kasama (T. Kasama, et al., J. Chromatogr., 400, 241, 1987) with modifications, where the amount of benzoyl chloride was increased by 10 times, the reaction time was doubled, and the measurement was performed by using a high performance liquid chromatography system. Significant differences were determined by t-test for body weights and serum lipids on the basis of the non-treated control mice.

The nature of series [2]: Example 1: body weight, body fat and feed intake of mice fed feed supplemented with 0.5% test compound. The class given is in vivo, CDF1 male mice. The settings on record: ratio relative to the non-treated control group, CDF1 mice. Here is the method:
as §1, §2, §3

A short description of series [3]: Example 4: body weight and body fat of mice fed 0.5% test compound for 14 days. The class given is in vivo, CDF1 male mice. Particulars: 0.5% in feed; for Intraperitoneal fat: mean (n=6) ± standard error; for Decrease of body fat: versus non-treated mice. Here is the method: (§4) 5-Campesten-3-one was prepared from campesterol (>97%, Tama Biochemical Industry, Ltd.). 4-Sitosten-3,6-dione was prepared from β-sitosterol (>65%, Tokyo Chemical Industry Co., Ltd.) and obtained as a mixture of 24-ethyl compound and 24-methyl compound (2:1). 5-Stigmasten-3-one was prepared from stigmasterol (>94%, Tokyo Chemical Industry, Co., Ltd.). As experimental animals, six CDF1 male mice (5-week old, Charles River Japan Inc.) were used in each experimental group. Modified AIN (Oriental Yeast Co.) was used as basic feed and mixed with 0.5% of each test compound to prepare test feeds. The animals were allowed to feed with the test food ad libitum for 14 days. Measurements of body weights and observations of general conditions of the animals were carried out twice a week, and the animals were subjected to autopsy and their bloods were collected. Serum lipid analysis was conducted by using a clinical test kit based on the enzymatic method (Wako Pure Chemicals Industries Co., Ltd.). Significances of the resulting values were examined by the one-way analysis of variance with pairwise comparison (ANOVA) according to the Bonferroni method. Other conditions were the same as those described in Example 1.

A short description of series [4]: Example 4: serum lipid concentration of mice fed 0.5% test compound for 14 days. Particulars: 0.5% in feed; for Total cholesterol / Triglyceride: mean (n=6) ± standard error. The class given is in vivo, CDF1 male mice. Here is the method:
as §4

Series [5] in a line: Example 2: body weight, feed intake, feed efficiency and intraperitoneal fat of mice fed 0.5% test compound. The class given is in vivo, CDF1 male mice. The settings on record: 0.5% in feed; for Feed efficiency (body weight gain/feed intake): 14 days; for Intraperitoneal fat: mean (n=6) ± standard error; for Body weight gain: total for 14 days; for Decrease of intraperitoneal fat: versus control. The text has this:
(§5) As 24-alkylcholesten-3-ones, (1) 4-sitosten-3-one, (2) 6α-hydroxy-4-sitosten-3-one, and (3) 6-hydroxy-4-sitosten-3-one (α:β=2.6:1) were synthesized by using β-sitosterol (Tokyo Chemical Industries Co., Ltd.). The content ratio of 24-ethyl and 24-methyl compounds in the synthesized product was 6.5:3.5. As experimental animals, six CDF1 male mice (5-week old, Charles River Japan Inc.) were used in each experimental group. A purified feed (Modified AIN, Oriental Yeast Co.) was used as a basic feed and mixed with 0.5% test compounds to prepare test feeds. The animals were allowed to feed and water ad libitum. The animals were weighed and observed to examine general conditions twice a week. The animals were subjected to autopsy after the end of the feeding, and their bloods were collected. Lipid concentrations in the separated serums were measured by using a clinical test kit based on the enzyme method (Wako Pure Chemicals Industries Co., Ltd.). Significances of the resulting experimental values were examined by the variance analysis. The other experimental conditions were the same as in Example 1.

Series [6] in a line: Example 2: serum (plasma) lipid concentrations of mice fed 0.5% test compound. It is filed as in vivo, CDF1 male mice. Particulars: 0.5% in feed; for Free fatty acid / HDL-cholesterol / Phospholipid / Total cholesterol / Triglyceride: mean (n=6) ± standard error.
Text: as §5

Setting [7] is: male, CDF1, mouse, in vivo, 2 weeks.

Consider `CC(C)CCC[C@@H](C)[C@H]1CC[C@H]2[C@@H]3CC(=O)C4=CC(=O)CC[C@]4(C)[C@H]3CC[C@]12C` [4-Cholestene-3,6-dione], for which, in series [1] (setting [7]), the Serum metabolite stood at 0. Further, in series [1] (CDF1 mice), the Serum cholesterol stood at 60% and the Serum neutral fats is 36%. Moreover, in series [2], the Body weight gain is recorded as −62% and the Intraperitoneal fat came out at 23%.
For `CC[C@H](CC[C@@H](C)[C@H]1CC[C@H]2[C@@H]3CC(=O)C4=CC(=O)CC[C@]4(C)[C@H]3CC[C@]12C)C(C)C` [4-Sitosten-3,6-dione], in series [3], the “Effect on the increase of body weight (FIG. 6)” value is “Significant inhibitory effects”, the Intraperitoneal fat worked out at 472.7 ± 37.7 mg and the “Decrease of body fat” value was ~40%. Also, in series [4], the “Decrease of serum total cholesterol concentration” value is recorded as ~18%, the “Decrease of serum triglyceride concentration” value is reported as ~66%, the Total cholesterol worked out at 156.3 ± 6.4 mg/dL and the Triglyceride came out at 85.8 ± 9.2 mg/dL.
`CC[C@H](CC[C@@H](C)[C@H]1CC[C@H]2[C@@H]3CCC4=CC(=O)CC[C@]4(C)[C@H]3CC[C@]12C)C(C)C` [4-Sitosten-3-one, 4-sitosten-3-one]: in series [5], the “Feed efficiency (change)” value is on record as “only slight changes”, the “Suppression of body weight (FIG. 3)” value is given as “no significant suppression”, the “Feed efficiency (body weight gain/feed intake)” value was 0.087 and the Intraperitoneal fat was found to be 841.5 ± 69.0 mg. In addition, in series [5], the Body weight gain is 3.71 g/mouse and the “Decrease of intraperitoneal fat” value is listed as “not signilficant”. Also, in series [6], the Free fatty acid worked out at 0.92 ± 0.03 mEq/dl, the HDL-cholesterol was determined as 42.4 ± 6.36 mg/dL, the Phospholipid was 271.0 ± 9.5 mg/dL and the Total cholesterol was 151.4 ± 5.7 mg/dL. In addition, in series [6], the Triglyceride was determined as 130.9 ± 4.9 mg/dL.
Take `CC(C)CCC[C@@H](C)[C@H]1CC[C@H]2[C@@H]3CC[C@@H]4CC(=O)CC[C@]4(C)[C@H]3CC[C@]12C` [5 β-Cholestan-3-one, 5β-cholestan-3-one]: the Serum metabolite entry in series [1] (metabolite of the test compound detected in serum, CDF1 mice) was “Cholestanol”. Moreover, the Serum metabolite entry in series [1] (metabolite of the test compound detected in serum, CDF1 mice, listed as 5β-cholestan-3-one) was “cholestanol or coprostanol”. In series [1] (CDF1 mice), the Serum cholesterol stood at 75% and the Serum neutral fats worked out at 70%. In addition, in series [2], the Body weight gain was determined as 51% and the Intraperitoneal fat was 71%.
Take `CC(C)[C@H](C)CC[C@@H](C)[C@H]1CC[C@H]2[C@@H]3CC=C4CC(=O)CC[C@]4(C)[C@H]3CC[C@]12C` [5-Campesten-3-one, 5-campesten-3-one (24-methylcholest-5-en-3-one)]: in series [3], the “Effect on the increase of body weight (FIG. 6)” value is listed as “Significant inhibitory effects; also recorded: remarkably suppressed”, the Intraperitoneal fat turned out to be 86.4 ± 19.9 mg and the “Decrease of body fat” value is on record as “about 90%”. Besides, in series [4], the “Decrease of serum total cholesterol concentration” value is listed as “about 34%”, the “Decrease of serum triglyceride concentration” value is “about 45%”, the Total cholesterol is 125.8 ± 4.0 mg/dL and the Triglyceride is 138.9 ± 18.7 mg/dL.
Turning to `CC(C)CCC[C@@H](C)[C@H]1CC[C@H]2[C@@H]3CC=C4CC(=O)CC[C@]4(C)[C@H]3CC[C@]12C` [5-Cholesten-3-one], the Serum metabolite in series [1] (setting [7]) was determined as 0. Besides, in series [1] (CDF1 mice), the Serum cholesterol is given as 68% and the Serum neutral fats came out at 30%. In addition, in series [2], the Body weight gain is −16% and the Intraperitoneal fat turned out to be 37%.
Turning to `CC(C)CCC[C@@H](C)[C@H]1CC[C@H]2[C@@H]3C[C@@H](Br)C4=CC(=O)CC[C@]4(C)[C@H]3CC[C@]12C` [6 β-Bromo-4-cholesten-3-one, 6β-bromo-4-cholesten-3-one], in series [1] (CDF1 mice), the Serum cholesterol is given as 98% and the Serum neutral fats was 89%. In addition, in series [2], the Body weight gain is recorded as 48% and the Intraperitoneal fat turned out to be 62%.
For the molecule `CC(C)CCC[C@@H](C)[C@H]1CC[C@H]2[C@@H]3CC(O)C4=CC(=O)CC[C@]4(C)[C@H]3CC[C@]12C` (stereo partly drawn) [6-Hydroxy-4-cholesten-3-one], in series [1] (setting [7]), the Serum metabolite was found to be 0. Also, in series [1] (CDF1 mice), the Serum cholesterol was 80% and the Serum neutral fats is recorded as 47%. Also, in series [2], the Body weight gain was determined as 50% and the Intraperitoneal fat was found to be 63%.
As for `CC[C@H](CC[C@@H](C)[C@H]1CC[C@H]2[C@@H]3CC(O)C4=CC(=O)CC[C@]4(C)[C@H]3CC[C@]12C)C(C)C` (stereo partly drawn) [6-Hydroxy-4-sitosten-3-one (α:β = 2.6:1), 6-hydroxy-4-sitosten-3-one (α:β=2.6:1)], in series [5], the “Feed efficiency (change)” value is reported as “remarkable decrease”, the “Suppression of body weight (FIG. 3)” value was “potent suppressing effects”, the “Feed efficiency (body weight gain/feed intake)” value came to 0.044 and the Intraperitoneal fat is 481.8 ± 51.9 mg. In series [5], the Body weight gain is reported as 1.82 g/mouse and the “Decrease of intraperitoneal fat” value is listed as 50%. Also, in series [6], the “Total cholesterol and phospholipid concentrations in plasma” value is “significantly decreased”; the Free fatty acid is recorded as 0.77 ± 0.03 mEq/dl; the HDL-cholesterol amounted to 45.0 ± 5.8 mg/dL; the Phospholipid was found to be 211.9 ± 5.1 mg/dL. Further, in series [6], the Total cholesterol is 133.3 ± 5.7 mg/dL and the Triglyceride was 76.5 ± 5.2 mg/dL.
`CC[C@H](CC[C@@H](C)[C@H]1CC[C@H]2[C@@H]3C[C@H](O)C4=CC(=O)CC[C@]4(C)[C@H]3CC[C@]12C)C(C)C` [6α-Hydroxy-4-sitosten-3-one, 6α-hydroxy-4-sitosten-3-one]: in series [5], the “Feed efficiency (change)” value is “remarkable decrease”, the “Suppression of body weight (FIG. 3)” value is given as “potent suppressing effects”, the “Feed efficiency (body weight gain/feed intake)” value is on record as 0.022 and the Intraperitoneal fat came out at 369.8 ± 22.5 mg. In addition, in series [5], the Body weight gain is listed as 0.86 g/mouse and the “Decrease of intraperitoneal fat” value is on record as 60%. In series [6], the “Total cholesterol and phospholipid concentrations in plasma” value is given as “significantly decreased”; the Free fatty acid was 0.69 ± 0.04 mEq/dl; the HDL-cholesterol is 36.7 ± 4.7 mg/dL; the Phospholipid came out at 209.6 ± 7.8 mg/dL. In series [6], the Total cholesterol was found to be 142.5 ± 5.1 mg/dL and the Triglyceride was 66.8 ± 3.5 mg/dL.
As for `CC(C)CCC[C@@H](C)[C@H]1CC[C@H]2[C@@H]3C=CC4=CC(=O)CC[C@]4(C)[C@H]3CC[C@]12C` [Colesta-4,6-dien-3-one], in series [1] (CDF1 mice), the Serum cholesterol is given as 63% and the Serum neutral fats was 60%. Also, in series [2], the Body weight gain came out at 59% and the Intraperitoneal fat stood at 69%.
